In US10618916B2, “Heterocyclic compounds as immunomodulators” (Incyte Corporation, priority 2018, dated 2020):

Legend:
[1] = test system: U2OS/PD-L1 cells and Jurkat-PD-1-SHP cells; test: Src homology region 2 domain-containing phosphatase (SHP) assay; format: cell-based; settings: Homo sapiens, U2OS
How it was run: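 U2OS/PD-L1 and Jurkat-PD-1-SHP cells (5000 each per well) were co-incubated with compound for 2 h at 37 °C in RPMI1640 with 1% FBS, 0.05% DMSO final. PathHunter chemiluminescence was read after 1 h at room temperature, and IC50 was fitted from percent of DMSO-control activity.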

PD-L1 = PD-L1 (Homo sapiens (Human), UniProt Q9NZQ7); test: PD-L1 whole blood internalization assay; format: cell-based; settings: 24 HR, PD-L1 expression on CD14+ cells, human interferon γ
Sequence of PD-L1 (Q9NZQ7 19-290): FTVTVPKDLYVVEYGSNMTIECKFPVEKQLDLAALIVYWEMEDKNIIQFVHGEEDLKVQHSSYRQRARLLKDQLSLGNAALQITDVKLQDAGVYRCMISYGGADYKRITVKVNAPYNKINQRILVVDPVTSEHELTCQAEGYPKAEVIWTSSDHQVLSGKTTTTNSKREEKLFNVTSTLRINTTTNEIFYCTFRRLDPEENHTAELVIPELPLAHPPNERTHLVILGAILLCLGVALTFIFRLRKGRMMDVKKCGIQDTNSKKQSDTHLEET

[2] = molecular target: PD-1/PD-L1 protein/protein interaction (recombinant human PD-L1 and human PD-1) (Homo sapiens (Human), UniProt Q9NZQ7); test: Homogeneous Time-Resolved Fluorescence (HTRF) PD-1/PD-L1 binding assay
Sequence of PD-1/PD-L1 protein/protein interaction (recombinant human PD-L1 and human PD-1) (Q9NZQ7 19-238): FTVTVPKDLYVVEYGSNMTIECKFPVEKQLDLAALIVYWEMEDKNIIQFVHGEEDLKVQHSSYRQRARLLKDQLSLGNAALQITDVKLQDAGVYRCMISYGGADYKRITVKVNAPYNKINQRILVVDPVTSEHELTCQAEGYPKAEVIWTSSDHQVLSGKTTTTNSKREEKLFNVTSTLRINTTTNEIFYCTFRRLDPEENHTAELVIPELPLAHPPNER
How it was run: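 Human PD-L1 (19-238, C-His; 10 nM final) and PD-1 (25-167, C-Fc; 3 nM final) preincubated 40 min with inhibitor in PBS pH 7.4, 0.05% Tween-20, 0.1% BSA, 1% DMSO, 25 °C. Eu-anti-human IgG (1 nM) and anti-His-APC (20 nM) added for 60 min; 665/620 nm ratio; IC50 from percent-control curves.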

[3] = test system: PD-L1 aAPC/CHO-K1 cells and Jurkat-PD-1-NFAT effector cells; test: Nuclear factor of activated T-cells (NFAT) assay; format: cell-based; settings: Cricetulus griseus, CHO-K1
How it was run: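 CHO-K1 cells expressing PD-L1 aAPC were co-cultured with Jurkat-PD-1-NFAT effector cells in RPMI 1640 with 1% FBS and compound (0.4% DMSO; top concentration 2 μM) for 24 h at 37 °C. Bio-Glo luminescence was read, fold induction normalised to DMSO wells, and EC50 fitted from percent of control compound activity.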

Compound	IC50 [1] [nM]	IC50 (PD-L1) [nM]	IC50 [2] [nM]	EC50 [3] [nM]
Cc1c(NC(=O)c2nc3c(n2C)CCN(C2CCN(C(N)=O)CC2)C3)cccc1-c1cccc(NC(=O)c2nc3c(n2C)CCN(CCC24CCC(C(=O)O)(CC2)C4)C3)c1Cl [Example 30, 4-(2-(2-((3′-(5-(1-carbamoylpiperidin-4-yl)-1-methyl-4,5,6,7-tetrahydro-1H-imidazo[4,5-c]pyridine-2-carboxamido)-2-chloro-2′-methyl-[1,1′-biphenyl]-3-yl)carbamoyl)-1-methyl-1,4,6,7-tetrahydro-5H-imidazo[4,5-c]pyridin-5-yl)ethyl)bicyclo[2.2.1]heptane-1-carboxylic acid]	≤ 10	10 to 100	≤ 5	10 to 100
Cc1c(NC(=O)c2nc3c(n2C)CCN(C[C@@H](C)O)C3)cccc1-c1cccc(NC(=O)c2nc3c(n2C)CCN(CCC24CCC(C(=O)O)(CC2)C4)C3)c1Cl [Example 31, (R)-4-(2-(2-((2-chloro-3′-(5-(2-hydroxypropyl)-1-methyl-4,5,6,7-tetrahydro-1H-imidazo[4,5-c]pyridine-2-carboxamido)-2′-methyl-[1,1′-biphenyl]-3-yl)carbamoyl)-1-methyl-1,4,6,7-tetrahydro-5H-imidazo[4,5-c]pyridin-5-yl)ethyl)bicyclo[2.2.1]heptane-1-carboxylic Acid]	≤ 10	10 to 100	≤ 5	10 to 100
Cc1c(NC(=O)c2nc3c(n2C)CCN(CCC24CCC(C(=O)O)(CC2)C4)C3)cccc1-c1cccc(NC(=O)c2nc3c(n2C)CCN(CCC24CCC(C(=O)O)(CC2)C4)C3)c1Cl [Example 34, 4,4′-(((((2-chloro-2′-methyl-[1,1′-biphenyl]-3,3′-diyl)bis(azanediyl))bis(carbonyl))bis(1-methyl-1,4,6,7-tetrahydro-5H-imidazo[4,5-c]pyridine-2,5-diyl))bis(ethane-2,1-diyl))bis(bicyclo[2.2.1]heptane-1-carboxylic acid)]	≤ 10	10 to 100	≤ 5	10 to 100
Cc1c(NC(=O)c2nc3c(n2C)CCN(CC24CCC(C(=O)O)(CC2)C4)C3)cccc1-c1cccc(NC(=O)c2nc3c(n2C)CCN(CCC24CCC(C(=O)O)(CC2)C4)C3)c1Cl [Example 35, 4-((2-((3′-(5-(2-(4-carboxybicyclo[2.2.1]heptan-1-yl)ethyl)-1-methyl-4,5,6,7-tetrahydro-1H-imidazo[4,5-c]pyridine-2-carboxamido)-2′-chloro-2-methyl-[1,1′-biphenyl]-3-yl)carbamoyl)-1-methyl-1,4,6,7-tetrahydro-5H-imidazo[4,5-c]pyridin-5-yl)methyl)bicyclo[2.2.1]heptane-1-carboxylic acid]	10 to 100	100 to 500	≤ 5	100 to 500
Cc1c(NC(=O)c2nc3c(n2C)CCN(CCc2ccc(C(=O)O)cc2)C3)cccc1-c1cccc(NC(=O)c2nc3c(n2C)CCN(CCC24CCC(C(=O)O)(CC2)C4)C3)c1Cl [Example 36, 4-(2-(2-((3′-(5-(4-carboxyphenethyl)-1-methyl-4,5,6,7-tetrahydro-1H-imidazo[4,5-c]pyridine-2-carboxamido)-2-chloro-2′-methyl-[1,1′-biphenyl]-3-yl)carbamoyl)-1-methyl-1,4,6,7-tetrahydro-5H-imidazo[4,5-c]pyridin-5-yl)ethyl)bicyclo[2.2.1]heptane-1-carboxylic acid]	≤ 10	10 to 100	≤ 5	10 to 100
Cc1c(NC(=O)c2nc3c(n2C)CCN(CCC24CCC(C(=O)O)(CC2)C4)C3)cccc1-c1cccc(NC(=O)c2nc3c(n2C)CCNC3)c1Cl [Example 37, 4-(2-(2-((2′-chloro-2-methyl-3′-(1-methyl-4,5,6,7-tetrahydro-1H-imidazo[4,5-c]pyridine-2-carboxamido)-[1,1′-biphenyl]-3-yl)carbamoyl)-1-methyl-1,4,6,7-tetrahydro-5H-imidazo[4,5-c]pyridin-5-yl)ethyl)bicyclo[2.2.1]heptane-1-carboxylic Acid]	≤ 10	10 to 100	≤ 5	10 to 100
Cc1c(NC(=O)c2nc3c(n2C)CCN(CCC24CCC(C(=O)O)(CC2)C4)C3)cccc1-c1cccc(NC(=O)c2nc3c(n2C)CCN(C2CCOCC2)C3)c1Cl [Example 38, 4-(2-(2-((2′-chloro-2-methyl-3′-(1-methyl-5-(tetrahydro-2H-pyran-4-yl)-4,5,6,7-tetrahydro-1H-imidazo[4,5-c]pyridine-2-carboxamido)-[1,1′-biphenyl]-3-yl)carbamoyl)-1-methyl-1,4,6,7-tetrahydro-5H-imidazo[4,5-c]pyridin-5-yl)ethyl)bicyclo[2.2.1]heptane-1-carboxylic acid]	≤ 10	10 to 100	≤ 5	10 to 100
Cc1c(NC(=O)c2nc3c(n2C)CCN(CCC24CCC(C(=O)O)(CC2)C4)C3)cccc1-c1cccc(NC(=O)c2nc3c(n2C)CCN(C2CCN(C(N)=O)CC2)C3)c1Cl [Example 40, 4-(2-(2-((3′-(5-(1-carbamoylpiperidin-4-yl)-1-methyl-4,5,6,7-tetrahydro-1H-imidazo[4,5-c]pyridine-2-carboxamido)-2′-chloro-2-methyl[1,1′-biphenyl]-3-yl)carbamoyl)-1-methyl-1,4,6,7-tetrahydro-5H-imidazo[4,5-c]pyridin-5-yl)ethyl)bicyclo[2.2.1]heptane-1-carboxylic acid]	≤ 10	10 to 100	≤ 5	10 to 100
Cc1c(NC(=O)c2nc3c(n2C)CCN(CCC24CCC(C(=O)O)(CC2)C4)C3)cccc1-c1cccc(NC(=O)c2nc3c(n2C)CCN(C[C@@H](C)O)C3)c1Cl [Example 41, (R)-4-(2-(2-((2′-chloro-3′-(5-(2-hydroxypropyl)-1-methyl-4,5,6,7-tetrahydro-1H-imidazo[4,5-c]pyridine-2-carboxamido)-2-methyl-[1,1′-biphenyl]-3-yl)carbamoyl)-1-methyl-1,4,6,7-tetrahydro-5H-imidazo[4,5-c]pyridin-5-yl)ethyl)bicyclo[2.2.1]heptane-1-carboxylic Acid]	≤ 10	10 to 100	≤ 5	10 to 100
Cc1c(NC(=O)c2nc3c(n2C)CCN(CCC24CCC(C(=O)O)(CC2)C4)C3)cccc1-c1cccc(NC(=O)c2nc3c(n2C)CCN(C[C@H](C)O)C3)c1Cl [Example 42, (S)-4-(2-(2-((2′-chloro-3′-(5-(2-hydroxypropyl)-1-methyl-4,5,6,7-tetrahydro-1H-imidazo[4,5-c]pyridine-2-carboxamido)-2-methyl-[1,1′-biphenyl]-3-yl)carbamoyl)-1-methyl-1,4,6,7-tetrahydro-5H-imidazo[4,5-c]pyridin-5-yl)ethyl)bicyclo[2.2.1]heptane-1-carboxylic acid]	≤ 10	10 to 100	≤ 5	10 to 100
Cc1c(NC(=O)c2nc3c(n2C)CCN(CCC24CCC(C(=O)O)(CC2)C4)C3)cccc1-c1cccc(NC(=O)c2nc3c(n2C)CCN(CCO)C3)c1Cl [Example 43, 4-(2-(2-((2′-chloro-3′-(5-(2-hydroxyethyl)-1-methyl-4,5,6,7-tetrahydro-1H-imidazo[4,5-c]pyridine-2-carboxamido)-2-methyl-[1,1′-biphenyl]-3-yl)carbamoyl)-1-methyl-1,4,6,7-tetrahydro-5H-imidazo[4,5-c]pyridin-5-yl)ethyl)bicyclo[2.2.1]heptane-1-carboxylic acid]	≤ 10	10 to 100	≤ 5	10 to 100
Cc1c(NC(=O)c2nc3c(n2C)CCN(CCC24CCC(C(=O)O)(CC2)C4)C3)cccc1-c1cccc(NC(=O)c2nc3c(n2C)CCN(CC24CCC(C(=O)O)(CC2)C4)C3)c1Cl [Example 44, 4-((2-((3′-(5-(2-(4-carboxybicyclo[2.2.1]heptan-1-yl)ethyl)-1-methyl-4,5,6,7-tetrahydro-1H-imidazo[4,5-c]pyridine-2-carboxamido)-2-chloro-2′-methyl-[1,1′-biphenyl]-3-yl)carbamoyl)-1-methyl-1,4,6,7-tetrahydro-5H-imidazo[4,5-c]pyridin-5-yl)methyl)bicyclo[2.2.1]heptane-1-carboxylic acid]	≤ 10	100 to 500	≤ 5	10 to 100
Cc1c(NC(=O)c2nc3c(n2C)CCN(CCC24CCC(C(=O)O)(CC2)C4)C3)cccc1-c1cccc(NC(=O)c2nc3c(n2C)CCN(CCc2ccc(C(=O)O)cc2)C3)c1Cl [Example 45, 4-(2-(2-((3′-(5-(4-carboxyphenethyl)-1-methyl-4,5,6,7-tetrahydro-1H-imidazo[4,5-c]pyridine-2-carboxamido)-2′-chloro-2-methyl-[1,1′-biphenyl]-3-yl)carbamoyl)-1-methyl-1,4,6,7-tetrahydro-5H-imidazo[4,5-c]pyridin-5-yl)ethyl)bicyclo[2.2.1]heptane-1-carboxylic acid]	≤ 10	100 to 500	5 to 10	10 to 100
